# According to patent US9678060B2, “Lunasin-induced regulation of disease-related gene expression” (THE REGENTS OF THE UNIVERSITY OF CALIFORNIA, priority 2007, dated 2017):
# Tests used:
# deacetylated histone H4 = deacetylated histone H4 (Homo sapiens, UniProt P62805); assay: Binding to histone H4 (FIG. 8)
# [1] = test system: H4-Lys16 acetylation at THBS gene promoter/CpG island; assay: PCR of ChIP DNA isolated with acetylated H4-Lys16 antibody; format: cell-based, human; details: lunasin-treated RWPE-1 (non-tumorigenic)
# Source text: (§1) THBS contains a CpG island within its promoter which together with other chemopreventative genes and tumor suppressors are frequently found to be hypermethylated during cancer formation. Since DNA hypermethylation of CpG islands is associated with histone hypoacetylation, we wanted to determine if there is a loss of H4-Lys16 acetylation within this region of the gene by conducting PCR on chromatin immunoprecipitated (ChiP) DNA using acetylated H4-Lys16 antibody and primers derived from the promoter/CpG island and exon 11 of the thrombospondin gene. […] The loss of H4-Lys16 acetylation on CpG island of the THBS promoter in tumor prostate cells leads to the silencing of the THBS gene and the inability of lunasin to increase H4-Lys16 acetylation and upregulate expression in tumorigenic cell lines.
# (§2) THBS protein levels were determined in RWPE-1 and -2 cell lines treated with or without lunasin. PCR was conducted on ChIP DNA isolated with acetylated H4-Lys16 antibody, using primers derived from the promoter and exon 11 of the THBS gene.
# [2] = molecular target: T1, histone H4 N-terminal tail lysines acetylated by PCAF (Homo sapiens, UniProt P62805); assay: In vitro histone acetylation (HAT) assay, PCAF; format: biochemical; details: 2 μM lunasin
# T1 construct: Acid extracted histones from untreated Hela cells; endogenous in cells; host or cells: HeLa
# Source text: (§3) Inhibition of histone acetylation and hypoacetylated histones are by nature correlated with transcriptional silencing and downregulation of genes. How then can lunasin, which inhibits H3 and H4 N-terminal tail acetylation, act as a transcriptional activator? To answer this question, the inventors determined the effect of lunasin on the acetylation of specific lysine residues on the H4 N-terminal tail ([…]) using the PCAF, Hat1 and p300 histone acetylase enzymes and acid-extracted core histones as substrate.
# (§4) Acid extracted histones from untreated Hela cells and purified recombinant histone H4 are used as templates in an in vitro histone acetylation (HAT) assay. Histone templates are pre-incubated in the presence or absence of 2 μM lunasin peptide for 30 min at RT before the addition of acetyl co-A, HAT reaction buffer and histone acetylase enzymes (p300, HAT1 and PCAF). HAT reaction mixture is incubated with shaking at 30° C. for 1 h before stopping the reaction by adding protein sample buffer and boiling for 5 min. Samples are run on 10-20% SDS-PAGE gels, blotted onto nitrocellulose membranes and immunostained with antibodies against histone H4 with specific N-terminal lysine acetylation sites at […], 8, 12 and 16. Densitometer readings are normalized using signals from untreated histone templates.
# [3] = test system: UGT1A family of genes in HepG2 liver cells; assay: UGT1A expression in HepG2 cells (Western blot, RT-PCR); format: cell-based; details: 24 h
# Procedure: HepG2 liver cells are grown in cell culture in the presence or absence of 10 uM lunasin peptide. After 24 h exposure, cells are harvested and total protein and RNA are harvested. Western blots are immunostained with UGT1A1 antibody and densitometer signals normalized using actin controls. […] Real-time quantitative RT-PCR will be conducted to measure differences in transcription levels.
# female SENCAR mice = details: topical application; cited from earlier work
# [4] = molecular target: T2, histone H4 N-terminal tail lysines acetylated by Hat1 (Homo sapiens, UniProt P62805); assay: In vitro histone acetylation (HAT) assay, Hat1; format: biochemical
# T2 construct: Acid extracted histones from untreated Hela cells; endogenous in cells; host or cells: HeLa
# Source text: as §3, §4
# [5] = test system: E1A-transfected C3H10T1/2 cells; details: cited from earlier work
# thrombospondin (THBS) = assay: Western blot of THBS protein in RWPE-1 and RWPE-2 cells; format: cell-based, human
# Source text: as §1, §2
# [6] = test system: non-tumorigenic prostate epithelial cell line (RWPE-1); assay: Microarray gene expression profile after 24 hour exposure to lunasin; format: cell-based, human
# Procedure: (§5) In the present disclosure the investigators analyzed changes in gene expression profiles of normal (RWPE-1) and malignant (RWPE-2) prostate epithelial cell lines after 24 hour exposure to synthetic lunasin. Results disclosed herein support the anti-neoplastic property of lunasin and help elucidate its molecular mechanism. […] It is therefore reasoned that lunasin suppresses neoplastic transformation by up-regulating various genes.
# (§6) To determine the genetic changes associated with lunasin treatment, the gene expression profiles of non-tumorigenic (RWPE-1) (SEQ ID No.2) and tumorigenic (RWPE-2) (SEQ ID No.2) prostate cells treated with synthetic lunasin were assessed using microarray analysis.
# [7] = test system: tumorigenic prostate epithelial cell line (RWPE-2); assay: as above; format: cell-based, human
# Procedure: as §5, §6
# [8] = test system: E1A-transfected mouse fibroblast NIH 3T3 cells; details: E1A-transfected NIH 3T3 cells; cited from earlier work
# [9] = molecular target: T3, histone H4 N-terminal tail lysines acetylated by p300 (Homo sapiens, UniProt P62805); assay: In vitro histone acetylation (HAT) assay, p300; format: biochemical
# T3 construct: Acid extracted histones from untreated Hela cells; endogenous in cells; host or cells: HeLa
# Source text: as §3, §4
# [10] = test system: p21/WAF1/Cip1 in NIH 3T3 cells; details: NIH 3T3 cells pre-treated 24 h, eight days after E1A transfection; cited from earlier work
# [11] = test system: C3H 10T1/2 mouse embryo fibroblast cells; details: C3H/T101/2 cells pre-treated 24 hour with lunasin (as little as 125 nM), then DMBA and MCA; six weeks assay; cited from earlier work
# [12] = acid-extracted core histones, 2 μM lunasin
# [13] = basal acid-extracted core histones, 2 μM lunasin
# [14] = lunasin-treated acid-extracted core histones, 2 μM lunasin
# [15] = recombinant H4, same in lunasin-treated and non-treated
# [16] = RWPE-1, 24 hour exposure to 2 micromolar lunasin
substance,measurement,setting,value
"lunasin: 43 amino acid small subunit of a soybean 2S albumin; residues 22-64 of SEQ ID NO:2 of U.S. Pat. No. 6,544,956; used as synthetic peptide",binding preference for histone H4,deacetylated histone H4,preferentially binds to deacetylated histone H4
same,H4-Lys16 acetylation at THBS gene (ChIP PCR),[1],significant increase
same,H4-Lys 5 acetylation by pCAF,[2]; acid-extracted core histones,did not reduce
same,inhibition of H4-Lys 8 acetylation by PCAF,[2]; basal acid-extracted core histones,33%
same,UGT1A1 protein levels (Western blot),[3]; 10 uM lunasin,upregulates
same,UGT1A1 expression (RT-PCR),[3]; 10 μM lunasin,significant upregulation
same,UGT1A3 expression (RT-PCR),[3]; 10 μM lunasin,significant upregulation
same,UGT1A6 expression (RT-PCR),[3]; 10 μM lunasin,significant upregulation
same,UGT1A10 expression (RT-PCR),[3]; 10 μM lunasin,significant upregulation
same,skin tumorigenesis,female SENCAR mice,inhibited skin tumorigenesis
same,H4-Lys 5 acetylation by Hat1,[4]; [12],did not reduce
same,H4-Lys12 acetylation by Hat1,[4]; [12],did not reduce
same,inhibition of H4-Lys 8 acetylation by Hat1,[4]; [13],30%
same,increase in H4-Lys16 acetylation by Hat1,[4]; [14],30%
same,"Lys16 acetylation by Hat1, recombinant H4 as substrate",[4]; [15],loss of Lys16 acetylation
same,apoptosis,[5],induce apoptosis
same,THBS protein level (Western blot),thrombospondin (THBS); non-tumorigenic RWPE-1 cell line,upregulated
same,THBS protein level (Western blot),thrombospondin (THBS); tumorigenic RWPE-2 prostate cells,silenced
same,Number of genes up-regulated (greater than twofold change),"[6]; RWPE-1, 2 μM lunasin for 24 hours, 14500 genes interrogated",121 genes
same,"Fold-change BNIP3, NIP3",[6]; [16],2.05
same,"Fold-change BUB1B, BUBR1",[6]; [16],2.23
same,"Fold-change ERBB2IP, ERBIN",[6]; [16],2.23
same,Fold-change MAD2L1,[6]; [16],2.12
same,Fold-change PORIMIN,[6]; [16],2.26
same,"Fold-change PRKAR1A, PKA",[6]; [16],2.45
same,"Fold-change PRKCL2, PRK2",[6]; [16],2.33
same,Fold-change PSMC6,[6]; [16],2.58
same,Fold-change RANBP2,[6]; [16],2.36
same,Fold-change SMURF2,[6]; [16],2.29
same,Fold-change SPTLC1,[6]; [16],2.12
same,"Fold-change THBS1, TSP1",[6]; [16],2.05
same,Fold-change TOB1,[6]; [16],2.32
same,Fold-change TTK,[6]; [16],2.08
same,Fold-change UBE1C,[6]; [16],2.15
same,Fold-change USP1,[6]; [16],2.23
same,SP3 expression in microarray,[6]; at 24 hours,upregulated
same,Genes down-regulated,"[6]; non-tumorigenic epithelial cells, 2 μM lunasin",No genes were down-regulated
same,p21/WAF1/Cip1 expression in microarray,[6]; within 24 hours,did not show upregulation
same,Genes up-regulated (greater than twofold change),"[7]; RWPE-2, 2 μM lunasin for 24 hours, 14500 genes interrogated",only two genes were up-regulated
same,Genes down-regulated,"[7]; tumorigenic epithelial cells, 2 μM lunasin",No genes were down-regulated
same,foci formation,[8],suppress foci formation
same,H4-Lys12 acetylation by p300,[9]; [12],did not reduce
same,inhibition of H4-Lys 8 acetylation by p300,[9]; [13],23.5%
same,increase in H4-Lys16 acetylation by p300,[9]; [14],22%
same,"Lys16 acetylation by p300, recombinant H4 as substrate",[9]; [15],loss of Lys16 acetylation
same,increase in p21/WAF1/Cip1 protein levels,[10],five-fold increase
same,reduction of foci formation,[11],70%
